Source: patent US20130004053A1, “System and method for automatic color segmentation and minimum significant response for measurement of fractional localized intensity of cellular compartments” (Vala Sciences, Inc., priority 2002, published 2013)

Legend:
[1] = tested on: NFκB p65 cytoplasm-to-nucleus translocation in HUVEC cells; conditions: previous reports [Ding et al.]; cited from earlier work
[2] = tested on: NFκB p65 cytoplasm-to-nucleus translocation in HUVEC cells; test: TNFα-induced NFκB cytoplasm-nucleus translocation in HUVEC (FLIN); format: cell-based, human
Description: The cells used in these studies were primary human umbilical vein endothelial cells (HUVEC) obtained from Clonetics Corporation. The cells were maintained in culture under standard conditions and passaged using Clonetics' proprietary EGM medium and reagent system. Since they are not transformed, HUVECs, generally become senescent after nine or ten passages.
Prior to assay, cells were transferred to 96-well plates (Packard black ViewPlate) and incubated overnight to yield cell monolayers that were approximately 25% confluent. Plates used to determine a statistically optimal cell density for the assay were made by seeding wells at 5000, 2500, and 1000 cells per well and incubating overnight. […] Translocation of NFκB from the cytoplasm to the nucleus was assessed by visual examination of sample wells with a confocal microscope system. […]
Fractional Localized Intensity Measurements on TNFα-induced NFκB Cytoplasm-Nucleus Translocation: Immunofluorescent staining of the NFκB p65 regulatory subunit allows for easy characterization of the intercellular NFκB distribution by visual inspection of images acquired during scanning. The majority of fluorescence lies outside the nuclear area in unstimulated cells, while a substantial amount co-locates with the nuclear mask subsequent to maximal stimulation with TNFα (FIG. 11). […]

tumor necrosis factor α [TNFα]
fraction of p65 to translocate on stimulus, of gross amount in unstimulated cell cytoplasm [1]: 20% | translocation of labeled NFκB, average ([2]; 200 U/ml TNFα, 15 m, average over cellular densities): 18.80% | gross p65 translocated upon maximal stimulation ([2]; maximal stimulation): ≈ 20%
